One data set deals with MCF7/ADM. As to the kind of experiment: Reversal of p-gp-mediated multidrug-resistance in human MCF7/ADM cells assessed as enhancement intensity at 10 ug/mL after 48 hrs by SRB assay relative to adriamycin. It counts as cell-based. A general note: In SRB staining, fixed cells bind dye roughly in proportion to their protein.
A short description of data set [1]: Reversal of p-gp-mediated multidrug-resistance in human MCF7/ADM cells after 48 hrs by SRB assay. It counts as cell-based.
The subject of a further data set is MCF/ADR. The experiment in a line: Reversal of P-gp-mediated multidrug resistance in human MCF/ADR cells assessed as reversal fold after 48 hrs by SRB assay relative to control. It counts as cell-based.
Data set [2] is described as follows: Octanol-water partition coefficient, log P of the compound. It counts as physicochemical.
For another data set, the system named is MCF7. The experiment in a line: Cytotoxicity against human MCF7 cells after 48 hrs by SRB assay. It counts as cell-based. The note with it: mcf7, 48 h.

Molecules are shown by their SMILES.

Broadly, the IC50 is the midpoint of a concentration-inhibition curve. The term logP denotes a log measure of how a compound divides between an organic and an aqueous phase. Low readings indicate lower lipophilicity, high ones higher lipophilicity. For the compound `C=C1CC[C@H]2[C@@H](/C=C(\C)C(=O)[C@@]3(OC(C)=O)C[C@H](C)[C@H](OC(=O)c4ccccc4)[C@@H]3[C@H]1OC(C)=O)C2(C)C`, the Activity in the data set with MCF7/ADM is 25%. Besides, the IC50 in data set [1] was found to be 165 µg/mL. Also, the Ratio IC50 with MCF/ADR turned out to be 6.57. Also, the logP in data set [2] came out at 6.4.
Regarding `CC(=O)OC/C1=C/[C@H]2[C@@H](OC(=O)/C=C/c3ccccc3)[C@@H](C)C[C@]2(OC(C)=O)C(=O)/C(C)=C/[C@@H]2[C@H](CC1)C2(C)C` (relative stereo), the Activity result in the data set with MCF7 was “Not Active”; in the data set with MCF7/ADM, 54%. In addition, the IC50 in data set [1] turned out to be 105 µg/mL. Moreover, the Ratio IC50 with MCF/ADR worked out at 10.3. Further, in data set [2], the logP amounted to 5.8.
As to `C=C1[C@@H](OC(=O)c2ccccc2)C[C@H]2[C@@H](/C=C(\C)C(=O)[C@@]3(OC(C)=O)C[C@H](C)[C@H](OC(=O)c4ccccc4)[C@@H]3[C@H]1OC(C)=O)C2(C)C`, the Activity result with MCF7 is “Not Active”; with MCF7/ADM, 34%. Further, in data set [1], the IC50 stood at 84.3 µg/mL. Also, the Ratio IC50 in the data set with MCF/ADR worked out at 12.8. Besides, the lipophilicity (logP) in data set [2] came out at 7.9.
Turning to `COc1ccc(CCN(C)CCCC(C#N)(c2ccc(OC)c(OC)c2)C(C)C)cc1OC` (configuration not stated) [VERAPAMIL], the Activity in the data set with MCF7/ADM is 19%. Moreover, in data set [1], the half-inhibitory concentration (IC50) stood at 367 µg/mL. In addition, in the data set with MCF/ADR, the Ratio IC50 worked out at 2.95.
Turning to `CC(=O)O[C@@H]1[C@H]2[C@@H](OC(=O)Cc3ccccc3)[C@@H](C)C[C@]2(OC(C)=O)C(=O)/C(C)=C/[C@@H]2[C@H](CC[C@]13CO3)C2(C)C`, the Activity entry was “Not Active” with MCF7 and 22% in the data set on MCF7/ADM. For the same compound, in data set [1], the IC50 turned out to be 246 µg/mL. Further, the Ratio IC50 in the data set on MCF/ADR was found to be 4.4. In data set [2], the logP amounted to 5.6.
In the same order, the values of `CC(=O)OC/C1=C\C[C@H]2[C@@H](/C=C(\C)C(=O)[C@@]3(OC(C)=O)C[C@H](C)[C@H](OC(=O)c4ccccc4)[C@@H]3[C@H]1OC(C)=O)C2(C)C` (relative stereo) are “Not Active”, 15%, 248 µg/mL, 4.36 and 6.1.

For the origin of these results see ChEMBL document CHEMBL1153023, “Lathyrane diterpenes from Euphorbia lathyris as modulators of multidrug resistance and their crystal structures” (Bioorg Med Chem, 2009).
